{"source": "patent US12083156B1", "about": "“Extracts derived from laser-irradiated rhizome of curcuma longa having enhanced antimicrobial activity” (KING FAISAL UNIVERSITY, priority 2023, dated 2024)", "experiment_in_all_cases": "Antimicrobial bioassay, inhibition zone", "assay_type_in_all_cases": "cell-based", "key": {"[1]": {"test_system": "S. aureus", "settings": "Staphylococcus aureus; extracts 5 mg/L; Imipenem 10 μg; mean of nine replicate plates", "experimental": "(§1) Each of the mean measurements was obtained from the average of nine replicate plates. The test solution positive control was 10 μg Imipenem. Three Curcuma longa extracts (5 mg/L) were prepared from ethanolic rhizome extracts as well as the control."}, "[2]": {"test_system": "E. coli", "settings": "Escherichia coli; extracts 5 mg/L; Imipenem 10 μg; mean of nine replicate plates", "experimental": "as §1"}, "[3]": {"test_system": "MRSA", "settings": "Staphylococcus aureus, extracts 5 mg/L, Imipenem 10 μg, mean of nine replicate plates", "experimental": "as §1"}, "[4]": {"test_system": "Bacillus sp.", "settings": "extracts 5 mg/L, Imipenem 10 μg, mean of nine replicate plates", "experimental": "as §1"}}, "data": [{"smiles": "C[C@@H](O)[C@H]1C(=O)N2C(C(=O)O)=C(SCCN=CN)C[C@H]12", "note": "[Imipenem]", "values": [{"measurement": "zone of inhibition at 10 µg/disc", "setting": "[1]", "result": 18, "unit": "mm"}, {"measurement": "zone of inhibition at 10 µg/disc", "setting": "[2]", "result": 20, "unit": "mm"}, {"measurement": "zone of inhibition at 10 µg/disc", "setting": "[3]", "result": 25, "unit": "mm"}, {"measurement": "zone of inhibition at 10 µg/disc", "setting": "[4]", "result": 19, "unit": "mm"}]}]}
